Entries after “also recorded” stand apart in the source; their conditions may differ.
Key:
Assay type in all cases: cell-based, Mouse
[1] = tested on: C2C12 cells differentiated into myotube cells; assay: Dexamethasone-induced myotube atrophy in C2C12 cells, myotube cell diameter (Example 1-2, also used for Examples 2 and 3)
Procedure: (§1) Mouse myoblast cell line C2C12 cells (RIKEN BRC, RCB0987) were suspended in growth medium (Dulbecco's modified Eagle's Medium supplemented with 10% FBS, 100 units/ml of penicillin, 100 μg/ml of streptomycin), seeded in 24-well plates, and incubated in a 37° C., 5% CO2 incubator until the cell density reached 70-90%.
The growth medium was removed, and exchanged to a differentiation induction medium (Dulbecco's modified Eagle's Medium supplemented with 2% adult bovine serum, 100 units/ml of penicillin, 100 μg/ml of streptomycin). The cells were cultured for 4 days while exchanging the medium once every 2 days and differentiated into myotube cells. The medium was removed and exchanged to the following media: • (1) Differentiation induction medium containing no dexamethasone [Dex (−)]; • (2) Differentiation induction medium containing 100 μM dexamethasone [Dex (+)]; • (3) Differentiation induction medium containing 100 μM dexamethasone and a certain amount of disodium cytidylate [Dex (+), a certain amount of CMP]; • (4) Differentiation induction medium containing 100 μM dexamethasone and a certain amount of cytidine [Dex (+), a certain amount of cytidine (which may be abbreviated as “Cyd”)]; • (5) Differentiation induction medium containing 100 μM dexamethasone and a certain amount of disodium uridylate [Dex (+), certain amount of UMP]; and • (6) Differentiation induction medium containing 100 μM dexamethasone and a certain amount of uridine [Dex (+), certain amount of uridine].
After culturing the cells for 3 days, five positions near the center of the wells were photographed at magnifications of 100. Using ImageJ image analysis software, the diameters of 10 myotube cells per a photograph were measured in the order from the myotube cell having the largest diameter, and an average of 50 cells was determined to be the diameter of the myotube cell in each well. Statistical analysis was performed by t-test or Dunnett's multiple comparison test using the differentiation induction medium treatment group supplemented only with 100 μM dexamethasone as a control. The threshold for statistical significance was set to 5%.
Cytidylic acid and uridylic were added to the medium at the concentrations shown in FIG. 7 so that the total concentration of cytidylic acid and uridylic acid was 1000 μM.
In Example 2, the total concentration of cytidylic acid/uridylic acid added to the medium was adjusted to 1000 μM and a ratio of the cytidylic acid/uridylic acid was varied.
Similarly, the effect of the combination of cytidine and uridine were also evaluated.

[2] = tested on: Atrogin-1; assay: Atrogin-1 mRNA expression in dexamethasone-treated C2C12 myotube cells (Example 4); conditions: 48 hours pretreatment, then 1 μM dexamethasone plus test substance 24 hours, corrected by β-actin
Procedure: (§2) Mouse myoblast cell line C2C12 cells were suspended in growth medium, seeded in 24-well plates, and incubated in a 37° C., 5% C02 incubator until the cell density reached 70-90%. The growth medium was removed, and exchanged to a differentiation induction medium. The cells were cultured for 6 days while exchanging the medium once every 2 days and differentiated into myotube cells. The medium was removed and exchanged to a differentiation induction medium or a differentiation induction medium containing a test substance. After 48 hours, the medium was removed and replaced with a differentiation induction medium, a differentiation induction medium supplemented only with 1 μM dexamethasone, or a medium supplemented with 1 μM dexamethasone and test substances (a certain amount of UMP (disodium uridylate), a certain amount of Urd (uridine), and […]).
(§3) After 24 hours, the medium was removed and total RNA was extracted from the cells using RNeasy Mini kit (QIAGEN) or NucleoSpin RNA (Takara Bio).
(§4) Using the total RNA as a template, a reverse transcription reaction solution was prepared using the ReverTra Ace(R) qPCR RT Kit (Toyobo). […] Analysis was performed by relative quantification, and mRNA expression levels were corrected using the β-actin mRNA expression level as an endogenous control. […]

[3] = tested on: MuRF1; assay: MuRF1 mRNA expression in dexamethasone-treated C2C12 myotube cells (Example 4); conditions: 48 hours pretreatment, then 1 μM dexamethasone plus test substance 24 hours, corrected by β-actin
Procedure: as §2, §3, §4

[4] = tested on: C2C12 cells differentiated into myotube cells; assay: Dexamethasone-induced myotube atrophy in C2C12 cells, myotube cell diameter (Example 1-1); conditions: 100 μM dexamethasone plus 2 mM or 5 mM disodium uridylate, 48 hours, vs Dex (+), UMP (−)
Procedure: as §1, with “C02” for “CO2”
The growth medium was removed, and exchanged to a differentiation induction medium (Dulbecco's modified Eagle's Medium supplemented with 2% adult bovine serum, 100 units/ml of penicillin, 100 μg/ml of streptomycin). The cells were cultured for 4 days while exchanging the medium once every 2 days and differentiated into myotube cells. […]
After 24 hours, the medium was changed again. […] Using ImageJ image analysis software, the diameters of 10 myotube cells per a photograph were measured in the order from the myotube cell having the largest diameter, and an average of 50 cells was determined to be the diameter of the myotube cell in each well. […]

[5] = Example 1-2, 100 μM dexamethasone plus a certain amount of test substance, 3 days, vs Dex (+) only
[6] = Example 3, 100 μM dexamethasone plus single test substance

Row | Compound | myotube cell diameter [1, 5] | myotube cell diameter [1, 6] | mRNA expression level of Atrogin-1 [2] | mRNA expression level of MuRF1 [3] | myotube cell diameter [4]
1 | O=c1ccn([C@@H]2O[C@H](CO)[C@@H](O)[C@H]2O)c(=O)[nH]1 [uridine] | significantly increased; also recorded: myotube cell atrophy inhibiting effect | significantly increased | decreased; also recorded: excellent inhibiting effect | decreased; also recorded: excellent inhibiting effect | 
2 | Nc1ccn([C@@H]2O[C@H](CO)[C@@H](O)[C@H]2O)c(=O)n1 [cytidine] | significantly increased; also recorded: myotube cell atrophy inhibiting effect | significantly increased |  |  | 
3 | Nc1ccn([C@@H]2O[C@H](COP(=O)(O)O)[C@@H](O)[C@H]2O)c(=O)n1 [cytidylic acid] | significantly increased; also recorded: myotube cell atrophy inhibiting effect | significantly increased |  |  | 
4 | O=c1ccn([C@@H]2O[C@H](COP(=O)(O)O)[C@@H](O)[C@H]2O)c(=O)[nH]1 [uridylic acid] | significantly increased; also recorded: myotube cell atrophy inhibiting effect | significantly increased | decreased; also recorded: excellent inhibiting effect | decreased; also recorded: excellent inhibiting effect | the reduction was suppressed

Source: patent publication US12661369B2, “Muscular atrophy inhibitor and method for inhibiting muscular atrophy” (YAMASA CORPORATION, priority 2020, dated 2026)
